The results in this text go back to patent US20250011881A1, “MYC-HSF1 DUAL AMPLIFICATION AS A BIOMARKER FOR CANCER TREATMENT” (The Trustees of Indiana University, priority 2023, published 2025).

Where “and” joins values, the source holds several entries; their conditions need not be identical. Equal entries are not always repeated. Structures can show the parent of a compound that is named as a salt.

The subject of the first experiment is ovarian cancer cells with (OVCAR8, OVCAR4) or without (OVSAHO, CAOV3) MYC-HSF1 amplification. In words: Epigenetic inhibitor drug screen, cell viability (Cell Titer Blue).
Details: not given
Type of experiment: cell-based.
In the case of `O=C(NCC(=O)N1CCCC1)Nc1ccc2cnccc2c1` [SGC707], the “Non Amp - AMP (POC) 10 uM” value amounted to 4.518 POC.

In the case of `C/C=C1\NC(=O)[C@H]2CSSCC/C=C/[C@H](CC(=O)N[C@H](C(C)C)C(=O)N2)OC(=O)[C@H](C(C)C)NC1=O` [Romidepsin (FK229, depsipeptide), Romidepsin], the “Non Amp - AMP (POC) 10 uM” value is given as 4.459 POC.

Still in this experiment, the particulars now being: 10 uM, 48 hrs; average relative cell viability (vs 1% DMSO) of non-amplified cells (OVSAHO, CAOV3) minus that of MYC-HSF1 amplified cells (OVCAR8, OVCAR4); positive = greater response in amplified cells.
On to `COc1cc2c(NC3CCN(CC4CCCCC4)CC3)nc(N3CCCN(C(C)C)CC3)nc2cc1OCCCN1CCCCC1` [UNC 0631], for which the “Non Amp - AMP (POC) 10 uM” value is given as 34.73 POC. As to `Nc1cc(F)ccc1NC(=O)c1ccc(CNC(=O)/C=C/c2cccnc2)cc1` [Chidamide], the “Non Amp - AMP (POC) 10 uM” value turned out to be 33.85 POC. Take `C[C@@H]1O[C@@H](O[C@H]2[C@H](O[C@H]3[C@H](O[C@H]4CC[C@]5(C)[C@H]6CC=C7[C@@H]8CC(C)(C)CC[C@]8(C(=O)O)CC[C@@]7(C)[C@]6(C)CC[C@H]5C4(C)C)OC[C@H](O)[C@@H]3O)O[C@H](CO)[C@@H](O)[C@@H]2O)[C@H](O)[C@H](O)[C@H]1O` [Raddeanin A]: the “Non Amp - AMP (POC) 10 uM” value turned out to be 2.609 POC.

`COc1cc2c(NC3CCN(C(C)C)CC3)nc(C3CCCCC3)nc2cc1OCCCN1CCCC1` [UNC0638]: the “Non Amp - AMP (POC) 10 uM” value is −12.13 POC.

With `Cc1cc(CN2CCN(c3c(Br)cnc4nc(-c5ccc(N6CCN(C)CC6)cc5)[nH]c34)CC2)no1` [CCT137690], the “Non Amp - AMP (POC) 10 uM” value is listed as 9.076 POC. Regarding `Cc1nn(C)cc1CN1CCC(c2ccc(C(=O)Nc3ccccc3N)cc2)CC1` [CXD101], the “Non Amp - AMP (POC) 10 uM” value is 83.35 POC. Same read-out and setting: in the case of `COc1ccc(C2(CNC(=O)c3ccc(NC(=O)c4ccco4)cc3)CCOCC2)cc1` [JW 55] it was −6.598 POC; in that of `CCOC(=O)c1ccc(NC(=O)O[C@H]2[C@H](OC(=O)Nc3ccc4c(c3)OCO4)[C@@H](OC(=O)Nc3ccc4c(c3)OCO4)[C@@H](OC)O[C@@H]2CO)cc1` [BRD 7552], −0.1565 POC.

Consider `Cc1noc(C)c1-c1ccc(-c2nc3cnccn3c2NC(C)(C)C)cc1` [UMB-32], for which the “Non Amp - AMP (POC) 10 uM” value is listed as −3.692 POC.

Regarding `COc1cc2nc(N3CCCN(C)CC3)nc(NC3CCN(Cc4ccccc4)CC3)c2cc1OC` [BIX 01294], the “Non Amp - AMP (POC) 10 uM” value is reported as −4.372 POC. Regarding `O=C(/C=C/c1ccc(O)c2c1[C@H](C(=O)O[C@H](Cc1ccc(O)c(O)c1)C(=O)O)[C@@H](c1ccc(O)c(O)c1)O2)O[C@H](Cc1ccc(O)c(O)c1)C(=O)O` [Salvianolic acid B], the “Non Amp - AMP (POC) 10 uM” value is recorded as 2.345 POC. With `COC(=O)[C@]12CCC(C)(C)C[C@H]1[C@H]1C(=O)C=C3[C@@]4(C)C=C(C#N)C(=O)C(C)(C)[C@@H]4CC[C@@]3(C)[C@]1(C)CC2` [Bardoxolone methyl], the “Non Amp - AMP (POC) 10 uM” value is 6.087 POC. For `CCCCC[C@H](O)CC(=O)CCc1ccc(O)c(OC)c1` [6-gingerol], the “Non Amp - AMP (POC) 10 uM” value is reported as −6.674 POC. On to `CO[C@@H](C(=O)N1Cc2n[nH]c(NC(=O)c3ccc(N4CCN(C)CC4)cc3)c2C1)c1ccccc1` [Danusertib (PHA-739358), Danusertib], for which the “Non Amp - AMP (POC) 10 uM” value is given as −1.72 POC. Take `COc1cc2c(cc1OC)C(=O)C(CC1CCN(Cc3ccccc3)CC1)C2` (stereo not shown) [Donepezil HCl]: the “Non Amp - AMP (POC) 10 uM” value is given as −4.516 POC. The same measure, in the same setting: in the case of `Cc1cc(Nc2cc(N3CCN(C)CC3)nc(Sc3ccc(NC(=O)C4CC4)cc3)n2)[nH]n1` [VX-680 (MK-0457, Tozasertib), Tozasertib] it was −20.25 POC. As to `Cc1cc(C)c(CNC(=O)c2cc(-c3ccc(CN4CCOCC4)cc3)cc3c2cnn3C2CCCC2)c(=O)[nH]1` [EPZ005687], the “Non Amp - AMP (POC) 10 uM” value was determined as 15.13 POC.

`O=C(CCCCCCNC(=O)c1cnc(N(c2ccccc2)c2ccccc2Cl)nc1)NO` [ACY-241]: the “Non Amp - AMP (POC) 10 uM” value amounted to 35.17 POC.

Take `Cc1cc(Nc2cc(N3CCN(C)CC3)nc(/C=C/c3ccccc3)n2)n[nH]1.O=C(O)C(O)C(O)C(=O)O` [ENMD-2076 L-(+)-Tartaric acid]: the “Non Amp - AMP (POC) 10 uM” value is −24.46 POC. On to `C[C@@H]1CC[C@@]2(OC1)O[C@H]1C[C@H]3[C@@H]4CC=C5C[C@@H](O)CC[C@]5(C)[C@H]4CC[C@]3(C)[C@H]1[C@@H]2C` [Diosgenin], for which the “Non Amp - AMP (POC) 10 uM” value came out at 5.646 POC.

Consider `COc1cccc2c1C(=O)c1c(O)c3c(c(O)c1C2=O)C[C@@](O)(C(=O)CO)C[C@@H]3O[C@H]1C[C@H](N)[C@H](O[C@@H]2CCCCO2)[C@H](C)O1` [Pirarubicin], for which the “Non Amp - AMP (POC) 10 uM” value worked out at 6.408 POC. As to `O=C(Cc1ccccc1)Nc1ccc2oc(-c3ccc(Cl)cc3Cl)nc2c1` [CAY10722], the “Non Amp - AMP (POC) 10 uM” value is −11.2 POC. Consider `O=C(CCl)Nc1ccc(S(=O)(=O)c2ccc(NC(=O)CCl)cc2)cc1` [TC-E 5003], for which the “Non Amp - AMP (POC) 10 uM” value came out at 0.7453 POC.

Consider `COc1cc2nc(N3CCCC3)nc(NCCCCCN3CCCC3)c2cc1OC` [UNC0379], for which the “Non Amp - AMP (POC) 10 uM” value was 21.92 POC. Regarding `Nc1ccccc1NC(=O)c1cnccn1` [BG45], the “Non Amp - AMP (POC) 10 uM” value was determined as 25.74 POC. Still for that read-out and setting: in the case of `O=[N+]([O-])c1ccc(Sc2cccc[n+]2[O-])c2nonc12` [NSC228155] it was 4.767 POC.

The experiment is the same for the next values; noted with them: 10 uM, 48 hrs; average relative cell viability (vs 1% DMSO) of non-amplified cells (OVSAHO, CAOV3) minus that of MYC-HSF1 amplified cells (OVCAR8, OVCAR4); positive = greater response in amplified cells; 10 µM.
As to `Cc1sc2c(c1C)C(c1ccc(Cl)cc1)=N[C@@H](CC(=O)Nc1ccc(O)cc1)c1nnc(C)n1-2` [OTX015], the “Non Amp - AMP (POC) 10 uM” value is recorded as 15.65 POC.

On to `O=C(O)c1ccc(O)c2ncccc12` [IOX1], for which the “Non Amp - AMP (POC) 10 uM” value stood at 11.45 POC. For `CCC(CC)(NC(=O)C(C)C)C(=O)N[C@@H](CCCN=C(N)N)C(=O)NC1(C(=O)NC(c2ccc(F)cc2)c2ccc(F)cc2)CCCC1` [MM-102], the “Non Amp - AMP (POC) 10 uM” value was 10.41 POC and 6.837 POC. The same measure, in the same setting: in the case of `CCN(c1cc(-c2ccc(CN3CCOCC3)cc2)cc(C(=O)NCc2c(C)cc(C)[nH]c2=O)c1C)C1CCOCC1` [EPZ6438] it was 8.683 POC. Take `COc1cc(OC)c2c(=O)[nH]c(-c3cc(C)c(OCCO)c(C)c3)nc2c1` [RVX-208]: the “Non Amp - AMP (POC) 10 uM” value was 12.33 POC and 7.058 POC.

In the case of `C[C@@H]1CCN(C(=O)CC#N)C[C@@H]1N(C)c1ncnc2[nH]ccc12` [Tofacitinib (CP-690550) Citrate, Tofacitinib], the “Non Amp - AMP (POC) 10 uM” value came to 3.666 POC.

Regarding `N#CC[C@H](C1CCCC1)n1cc(-c2ncnc3[nH]ccc23)cn1` [Ruxolitinib phosphate], the “Non Amp - AMP (POC) 10 uM” value was found to be 2.659 POC. Consider `C[C@]1(c2nc3c(C(N)=O)cccc3[nH]2)CCCN1` [ABT-888 (Veliparib), Veliparib], for which the “Non Amp - AMP (POC) 10 uM” value is given as −1.058 POC. On the same count and under the same terms, in the case of `COc1cc2c(cc1OCCCN1CCCC1)N=C(N)C21CCC1` [A-366] it was 11.91 POC. As to `O=C(CCCCCCC(=O)Nc1ccccc1)NO` [Vorinostat (SAHA, MK0683), Vorinostat], the “Non Amp - AMP (POC) 10 uM” value amounted to 37.32 POC. As for `Cn1cc(CNCC2CCN(c3ncc(C(=O)NO)cn3)CC2)c2ccccc21` [JNJ-26481585], the “Non Amp - AMP (POC) 10 uM” value was 38.34 POC and 26.25 POC. Turning to `CNCc1ccc(-c2[nH]c3cc(F)cc4c3c2CCNC4=O)cc1` [Rucaparib (free base), Rucaparib], the “Non Amp - AMP (POC) 10 uM” value is reported as 8.811 POC. On to `CC(C)Oc1ccc(-c2c[nH]cc2CN(C)CCN)cc1` [MS023], for which the “Non Amp - AMP (POC) 10 uM” value was −0.6323 POC.

Still in this experiment, the particulars now being: 10 uM, 48 hrs; average relative cell viability (vs 1% DMSO) of non-amplified cells (OVSAHO, CAOV3) minus that of MYC-HSF1 amplified cells (OVCAR8, OVCAR4); positive = greater response in amplified cells; listed as A 366, 10 µM.
As to `COc1cc2c(cc1OCCCN1CCCC1)N=C(N)C21CCC1` [A-366], the “Non Amp - AMP (POC) 10 uM” value was 3.68 POC.

Staying with this experiment, now noted: 10 uM, 48 hrs; average relative cell viability (vs 1% DMSO) of non-amplified cells (OVSAHO, CAOV3) minus that of MYC-HSF1 amplified cells (OVCAR8, OVCAR4); positive = greater response in amplified cells; listed as EPZ-6438, 10 µM.
For the compound `CCN(c1cc(-c2ccc(CN3CCOCC3)cc2)cc(C(=O)NCc2c(C)cc(C)[nH]c2=O)c1C)C1CCOCC1` [EPZ6438], the “Non Amp - AMP (POC) 10 uM” value was 3.862 POC.

Still in this experiment, the particulars now being: 10 uM, 48 hrs; average relative cell viability (vs 1% DMSO) of non-amplified cells (OVSAHO, CAOV3) minus that of MYC-HSF1 amplified cells (OVCAR8, OVCAR4); positive = greater response in amplified cells; listed as IOX 1, 10 µM.
Take `O=C(O)c1ccc(O)c2ncccc12` [IOX1]: the “Non Amp - AMP (POC) 10 uM” value is 2.198 POC.

The experiment is the same for the next values; noted with them: 10 uM, 48 hrs; average relative cell viability (vs 1% DMSO) of non-amplified cells (OVSAHO, CAOV3) minus that of MYC-HSF1 amplified cells (OVCAR8, OVCAR4); positive = greater response in amplified cells; listed as OTX-015, 10 µM.
In the case of `Cc1sc2c(c1C)C(c1ccc(Cl)cc1)=N[C@@H](CC(=O)Nc1ccc(O)cc1)c1nnc(C)n1-2` [OTX015], the “Non Amp - AMP (POC) 10 uM” value is 2.251 POC.

The experiment is the same for the next values; noted with them: 10 uM, 48 hrs; average relative cell viability (vs 1% DMSO) of non-amplified cells (OVSAHO, CAOV3) minus that of MYC-HSF1 amplified cells (OVCAR8, OVCAR4); positive = greater response in amplified cells; listed as SAHA, 10 µM.
Turning to `O=C(CCCCCCC(=O)Nc1ccccc1)NO` [Vorinostat (SAHA, MK0683), Vorinostat], the “Non Amp - AMP (POC) 10 uM” value is 44.79 POC.
